How the values were obtained:
[1] = test system: feline calicivirus F4 strain; assay: In vitro test in test tube, feline caliciviruses (Example 11); type: cell-based
HEp-2 cells = conditions: human, 20 min
feline caliciviruses = assay: Sterilizing solution wrung from wet wipe, feline caliciviruses (Example 11)

OCl [Sodium hypochlorite aqueous solution, sodium hypochlorite]
<100 CPU/mL: number of infectious viruses (feline caliciviruses; solution from wet wipe, 500 ppm (formulation 60 times), contact 10 min) | number of infectious viruses (feline caliciviruses; solution from wet wipe, 750 ppm (formulation 40 times), contact 1 min) | number of infectious viruses (feline caliciviruses; solution from wet wipe, 750 ppm (formulation 40 times), contact 5 min) | number of infectious viruses (feline caliciviruses; solution from wet wipe, 750 ppm (formulation 40 times), contact 10 min) | number of infectious viruses (feline caliciviruses; solution from wet wipe, 1000 ppm (formulation 30 times), contact 1 min) | number of infectious viruses (feline caliciviruses; solution from wet wipe, 1000 ppm (formulation 30 times), contact 5 min) | number of infectious viruses (feline caliciviruses; solution from wet wipe, 1000 ppm (formulation 30 times), contact 10 min) | number of infectious viruses (feline caliciviruses; solution from wet wipe, 3000 ppm (formulation 10 times), contact 1 min) | number of infectious viruses (feline caliciviruses; solution from wet wipe, 3000 ppm (formulation 10 times), contact 5 min) | number of infectious viruses (feline caliciviruses; solution from wet wipe, 3000 ppm (formulation 10 times), contact 10 min)
4.7 ± 2.8 log CPU/mL: number of infectious viruses ([1]; pH 8.5, 25 ppm, contact 0 min) | number of infectious viruses ([1]; pH 8.5, 50 ppm, contact 0 min) | number of infectious viruses ([1]; pH 8.5, 100 ppm, contact 0 min) | number of infectious viruses ([1]; pH 8.5, 200 ppm, contact 0 min) | number of infectious viruses ([1]; pH 8.5, 400 ppm, contact 0 min)
3.5 ± 2.1 log CPU/mL: number of infectious viruses ([1]; pH 8.5, 50 ppm, contact 5 min) | number of infectious viruses ([1]; pH unadjusted, 50 ppm, contact 1 min)
>10^6 log CPU/mL: number of infectious viruses ([1]; pH unadjusted, 25 ppm, contact 10 min)
2.9 ± 2.7 CPU/mL: number of infectious viruses (feline caliciviruses; solution from wet wipe, 500 ppm (formulation 60 times), contact 5 min)
3.5 ± 2.1 CPU/mL: number of infectious viruses (feline caliciviruses; solution from wet wipe, 500 ppm (formulation 60 times), contact 1 min)
6.4 ± 2.7 log CPU/mL: number of infectious viruses ([1]; pH unadjusted, 25 ppm, contact 0 min) | number of infectious viruses ([1]; pH unadjusted, 50 ppm, contact 0 min) | number of infectious viruses ([1]; pH unadjusted, 100 ppm, contact 0 min) | number of infectious viruses ([1]; pH unadjusted, 200 ppm, contact 0 min) | number of infectious viruses ([1]; pH unadjusted, 400 ppm, contact 0 min)
4.6 ± 3.2 log CPU/mL: number of infectious viruses ([1]; pH 8.5, 50 ppm, contact 1 min)
3.7 ± 2.6 log CPU/mL: number of infectious viruses ([1]; pH 8.5, 100 ppm, contact 1 min)
2.9 ± 2.7 log CPU/mL: number of infectious viruses ([1]; pH unadjusted, 50 ppm, contact 5 min)
<100: number of infectious viruses (feline caliciviruses; wet wipe stored Day 0, 1000 ppm, contact 1 min) | number of infectious viruses (feline caliciviruses; wet wipe stored Day 0, 1000 ppm, contact 5 min) | number of infectious viruses (feline caliciviruses; wet wipe stored Day 0, 1000 ppm, contact 10 min) | number of infectious viruses (feline caliciviruses; wet wipe stored Day 0, 3000 ppm, contact 1 min) | number of infectious viruses (feline caliciviruses; wet wipe stored Day 0, 3000 ppm, contact 5 min) | number of infectious viruses (feline caliciviruses; wet wipe stored Day 0, 3000 ppm, contact 10 min)
about 0.5 ppm: concentration that generated dead cells (HEp-2 cells)
5.2 ± 2.6 log CPU/mL: number of infectious viruses ([1]; pH 7.5, 400 ppm, contact 0 min)
2.5 ± 2.3 log CPU/mL: number of infectious viruses ([1]; pH 8.5, 200 ppm, contact 1 min)
Many: number of infectious viruses (feline caliciviruses; wet wipe stored Day 3, 1000 ppm, contact 1 min) | number of infectious viruses (feline caliciviruses; wet wipe stored Day 3, 1000 ppm, contact 5 min) | number of infectious viruses (feline caliciviruses; wet wipe stored Day 3, 1000 ppm, contact 10 min) | number of infectious viruses (feline caliciviruses; wet wipe stored Day 3, 3000 ppm, contact 1 min) | number of infectious viruses (feline caliciviruses; wet wipe stored Day 3, 3000 ppm, contact 5 min) | number of infectious viruses (feline caliciviruses; wet wipe stored Day 3, 3000 ppm, contact 10 min)
2.5 ± 1.8 log CPU/mL: number of infectious viruses ([1]; pH 7.5, 200 ppm, contact 1 min)
<2.0 log CPU/mL: number of infectious viruses ([1]; pH 7.5, 200 ppm, contact 5 min) | number of infectious viruses ([1]; pH 7.5, 200 ppm, contact 10 min) | number of infectious viruses ([1]; pH 7.5, 400 ppm, contact 1 min) | number of infectious viruses ([1]; pH 7.5, 400 ppm, contact 5 min) | number of infectious viruses ([1]; pH 7.5, 400 ppm, contact 10 min) | number of infectious viruses ([1]; pH 8.5, 50 ppm, contact 10 min) | number of infectious viruses ([1]; pH 8.5, 100 ppm, contact 5 min) | number of infectious viruses ([1]; pH 8.5, 100 ppm, contact 10 min) | number of infectious viruses ([1]; pH 8.5, 200 ppm, contact 5 min) | number of infectious viruses ([1]; pH 8.5, 200 ppm, contact 10 min) | number of infectious viruses ([1]; pH 8.5, 400 ppm, contact 1 min) | number of infectious viruses ([1]; pH 8.5, 400 ppm, contact 5 min) | number of infectious viruses ([1]; pH 8.5, 400 ppm, contact 10 min) | number of infectious viruses ([1]; pH unadjusted, 50 ppm, contact 10 min) | number of infectious viruses ([1]; pH unadjusted, 100 ppm, contact 1 min) | number of infectious viruses ([1]; pH unadjusted, 100 ppm, contact 5 min) | number of infectious viruses ([1]; pH unadjusted, 100 ppm, contact 10 min) | number of infectious viruses ([1]; pH unadjusted, 200 ppm, contact 1 min) | number of infectious viruses ([1]; pH unadjusted, 200 ppm, contact 5 min) | number of infectious viruses ([1]; pH unadjusted, 200 ppm, contact 10 min) | number of infectious viruses ([1]; pH unadjusted, 400 ppm, contact 1 min) | number of infectious viruses ([1]; pH unadjusted, 400 ppm, contact 5 min) | number of infectious viruses ([1]; pH unadjusted, 400 ppm, contact 10 min)

Reference: patent US20160113282A1 (HONBU SANKEI CO., LTD., priority 2013, published 2016)
